The source of these data is patent US20020137929A1, “1 - (3-heterocyclylphenyl) isothiourea, -isourea, -guanidine and -amidine herbicidal agents” (Intellectual Property Department, BASF Aktiengesellschaft, priority 1998, published 2002).

Assay [1] deals with CHEAL (Lambsquarters, Common). Kind of assay: Postemergence herbicidal evaluation. In kind it is in vivo, Chenopodium album. To be noted: for CHEAL herbicidal rating: postemergence. In short, it runs like this: (§1)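 Visual 0-9 injury score (stand, vigor, malformation, size, chlorosis, appearance vs untreated) taken four to five weeks post-spray, averaged across repeat tests. Test plants about two weeks old; foliar spray of acetone/water (1:1) with 0.5% surfactant delivering ~0.0156-0.500 kg active/ha.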

Assay [2] concerns IPOHE (Morningglory, Ivyleaf). Kind of assay: Postemergence herbicidal evaluation. In kind it is in vivo, Ipomoea hederacea. To be noted: for IPOHE herbicidal rating: postemergence. In short, it runs like this:
as §1

Assay [3] deals with GALAP (Galium). Kind of assay: Preemergence herbicidal evaluation. In kind it is in vivo, Galium aparine. The settings on record: rated 4-5 weeks after treatment. An excerpt: (§2) Results of herbicide evaluation are expressed on a rating scale (0-9). The scale is based upon a visual observation of plant stand, vigor, malformation, size, chlorosis and overall plant appearance as compared with a control.
(§3) The preemergence herbicidal activity of the test compounds of the present invention is exemplified by the following tests in which the seeds of a variety of monocotyledonous and dicotyledonous plants are separately mixed with potting soil and planted on top of approximately one inch of soil in separate pint cups. After planting, the cups are sprayed with the selected aqueous acetone solution containing test compound in sufficient quantity to provide the equivalent of about 0.0156 to 0.500 kg per hectare of test compound per cup. The treated cups are then placed on greenhouse benches, watered and cared for in accordance with conventional greenhouse procedures. From four to five weeks after treatment, the tests are terminated and each cup is examined and rated according to the rating system provided in Example 37.
(§4) The compounds evaluated are reported by compound number given in Example 37.

The test system of assay [4] is ECHCG (Barnyardgrass). Kind of assay: Preemergence herbicidal evaluation. The format is in vivo, Echinochloa crus-galli. To be noted: rated 4-5 weeks after treatment. In short, it runs like this:
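Preemergence soil application of compound, sprayed in aqueous acetone at rates equivalent to about 0.0156 to 0.500 kg per hectare onto freshly sown cups. Plant response was judged by eye on a 0-9 scale four to five weeks later.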

For assay [5], the system named is GLXMAW (Soybean, Williams). Kind of assay: Preemergence herbicidal evaluation. In kind it is in vivo, Glycine max, (L.) Merr. cv Williams. To be noted: rated 4-5 weeks after treatment.
Text: as §2, §3, §4

Consider `CCOC(=O)C(c1ccc(Cl)cc1)N1C(=O)CSC1=Nc1cc(-n2c(=O)cc(C(F)(F)F)n(C)c2=O)c(F)cc1Cl` (racemic) [Compound 79, Ethyl α-(p-chlorophenyl)-2-{{2-chloro-5-[3,6-dihydro-3-methyl-2,6-dioxo-4-(trifluoromethyl)-1(2H)-pyrimidinyl]-4-fluorophenyl}imino}-4-oxo-3-thiazolidineacetate, DL-], for which the values for the CHEAL herbicidal rating in assay [1] (rate 0.0158 kg/ha), in assay [1] (rate 0.0315 kg/ha) and in assay [1] (rate 0.0630 kg/ha) were 1.0, 7.0 and 7.0, respectively. The IPOHE herbicidal rating in assay [2] (rate 0.0158 kg/ha), in assay [2] (rate 0.0315 kg/ha) and in assay [2] (rate 0.0630 kg/ha) was 9.0 in each case. Besides, the “Preemergence herbicidal rating GALAP” value in assay [3] (rate 0.0313 kg/ha), in assay [3] (rate 0.0625 kg/ha), in assay [3] (rate 0.1250 kg/ha) and in assay [3] (rate 0.2500 kg/ha) was 0.0 each time. Moreover, the “Preemergence herbicidal rating ECHCG” value in assay [4] (rate 0.0313 kg/ha), in assay [4] (rate 0.0625 kg/ha), in assay [4] (rate 0.1250 kg/ha) and in assay [4] (rate 0.2500 kg/ha) was 0.0 throughout. The “Preemergence herbicidal rating GLXMAW” value stood at 1.0 in assay [5] (rate 0.0313 kg/ha), 1.0 in assay [5] (rate 0.0625 kg/ha), 0.0 in assay [5] (rate 0.1250 kg/ha) and 2.0 in assay [5] (rate 0.2500 kg/ha).
Take `CCOC(=O)CN1CCSC1=Nc1cc(-n2nc(C)n(C(F)F)c2=O)c(F)cc1Cl` [Compound 36]: the “Postemergence herbicidal rating CHEAL” value in assay [1] (Rate 0.0158 kg/ha) is given as 2.0; in assay [1] (Rate 0.0315 kg/ha) it was 3.0; in assay [1] (Rate 0.0630 kg/ha) it was 4.0. The “Postemergence herbicidal rating IPOHE” value in assay [2] (Rate 0.0158 kg/ha), in assay [2] (Rate 0.0315 kg/ha) and in assay [2] (Rate 0.0630 kg/ha) was 9.0 each time. In addition, the “Preemergence herbicidal rating GALAP” value in assay [3] (rate 0.0625 kg/ha), in assay [3] (rate 0.1250 kg/ha) and in assay [3] (rate 0.2500 kg/ha) was 9.0 throughout. The “Preemergence herbicidal rating ECHCG” value in assay [4] (rate 0.0625 kg/ha) amounted to 0.0; in assay [4] (rate 0.1250 kg/ha), 2.0; in assay [4] (rate 0.2500 kg/ha) it was 6.0. Moreover, the “Preemergence herbicidal rating GLXMAW” value in assay [5] (rate 0.0625 kg/ha), in assay [5] (rate 0.1250 kg/ha) and in assay [5] (rate 0.2500 kg/ha) was 0.0 throughout.
Regarding `Cn1c(C(F)(F)F)cc(=O)n(-c2cc(N=C3SCC(=O)N3[C@H](Cc3ccccc3)C(=O)O)c(Cl)cc2F)c1=O` [Compound 69, α-Benzyl-2-{{2-chloro-5-[3,6-dihydro-3-methyl-2,6-dioxo-4-(trifluoromethyl)-1(2H)-pyrimidinyl]-4-fluorophenyl}imino}-4-oxo-3-thiazolidineacetic acid, D-], the CHEAL herbicidal rating in assay [1] (rate 0.0158 kg/ha) amounted to 7.0; in assay [1] (rate 0.0315 kg/ha) it was 9.0. The IPOHE herbicidal rating in assay [2] (rate 0.0158 kg/ha), in assay [2] (rate 0.0315 kg/ha) and in assay [2] (rate 0.0630 kg/ha) was 9.0 throughout. Moreover, the “Preemergence herbicidal rating GALAP” value in assay [3] (rate 0.0156 kg/ha) is recorded as 0.0; in assay [3] (rate 0.0313 kg/ha) it was 0.0; in assay [3] (rate 0.0625 kg/ha), 0.0; in assay [3] (rate 0.1250 kg/ha) it was 1.0; in assay [3] (rate 0.2500 kg/ha) it was 1.0. In addition, the “Preemergence herbicidal rating ECHCG” value in assay [4] (rate 0.0156 kg/ha) is recorded as 0.0; in assay [4] (rate 0.0313 kg/ha), 0.0; in assay [4] (rate 0.0625 kg/ha), 0.0; in assay [4] (rate 0.1250 kg/ha) it was 1.0; in assay [4] (rate 0.2500 kg/ha) it was 3.0. For the same compound, the “Preemergence herbicidal rating GLXMAW” value in assay [5] (rate 0.0156 kg/ha) was 1.0; in assay [5] (rate 0.0313 kg/ha), 0.0; in assay [5] (rate 0.0625 kg/ha), 0.0; in assay [5] (rate 0.1250 kg/ha) it was 1.0; in assay [5] (rate 0.2500 kg/ha) it was 2.0.
Consider `COC(=O)[C@H](Cc1ccccc1)N1C(=O)CS/C1=N/c1cc(-n2c(=O)cc(C(F)(F)F)n(C)c2=O)c(F)cc1Cl` [Compound 72, Methyl α-benzyl-2-{{2-chloro-5-[3,6-dihydro-3-methyl-2,6-dioxo-4-(trifluoromethyl)-1(2H)-pyrimidinyl]-4-fluorophenyl]imino}-4-oxo-3-thiazolidineacetate, L-], for which the CHEAL herbicidal rating is on record as 7.0 in assay [1] (rate 0.0158 kg/ha) and 9.0 in assay [1] (rate 0.0315 kg/ha). Also, the IPOHE herbicidal rating was found to be 9.0 in assay [2] (rate 0.0158 kg/ha), 7.0 in assay [2] (rate 0.0315 kg/ha) and 9.0 in assay [2] (rate 0.0630 kg/ha). The “Preemergence herbicidal rating GALAP” value in assay [3] (rate 0.0156 kg/ha) was 0.0; in assay [3] (rate 0.0313 kg/ha) it was 0.0; in assay [3] (rate 0.0625 kg/ha) it was 0.0; in assay [3] (rate 0.1250 kg/ha), 0.0; in assay [3] (rate 0.2500 kg/ha), 9.0. The “Preemergence herbicidal rating ECHCG” value is on record as 0.0 in assay [4] (rate 0.0156 kg/ha); 0.0 in assay [4] (rate 0.0313 kg/ha); 0.0 in assay [4] (rate 0.0625 kg/ha); 0.0 in assay [4] (rate 0.1250 kg/ha); 3.0 in assay [4] (rate 0.2500 kg/ha). In addition, the “Preemergence herbicidal rating GLXMAW” value in assay [5] (rate 0.0156 kg/ha) is 0.0; in assay [5] (rate 0.0313 kg/ha), 0.0; in assay [5] (rate 0.0625 kg/ha) it was 0.0; in assay [5] (rate 0.1250 kg/ha), 1.0; in assay [5] (rate 0.2500 kg/ha), 3.0.
Take `Cn1c(C(F)(F)F)cc(=O)n(-c2cc(N=C3SCC(=O)N3C3CCOC3=O)c(Cl)cc2F)c1=O` (stereo not shown) [Compound 73]: the values for the CHEAL herbicidal rating in assay [1] (rate 0.0158 kg/ha), in assay [1] (rate 0.0315 kg/ha) and in assay [1] (rate 0.0630 kg/ha) were 4.0, 9.0 and 9.0, respectively. Also, the IPOHE herbicidal rating in assay [2] (rate 0.0158 kg/ha), in assay [2] (rate 0.0315 kg/ha) and in assay [2] (rate 0.0630 kg/ha) was 9.0 throughout. The “Preemergence herbicidal rating GALAP” value in assay [3] (rate 0.0156 kg/ha) came to 0.0; in assay [3] (rate 0.0313 kg/ha), 0.0; in assay [3] (rate 0.0625 kg/ha), 0.0; in assay [3] (rate 0.1250 kg/ha) it was 4.0; in assay [3] (rate 0.2500 kg/ha) it was 9.0. The “Preemergence herbicidal rating ECHCG” value in assay [4] (rate 0.0156 kg/ha) was 0.0; in assay [4] (rate 0.0313 kg/ha) it was 0.0; in assay [4] (rate 0.0625 kg/ha) it was 0.0; in assay [4] (rate 0.1250 kg/ha) it was 0.0; in assay [4] (rate 0.2500 kg/ha), 4.0. The “Preemergence herbicidal rating GLXMAW” value came out at 0.0 in assay [5] (rate 0.0156 kg/ha); 1.0 in assay [5] (rate 0.0313 kg/ha); 1.0 in assay [5] (rate 0.0625 kg/ha); 1.0 in assay [5] (rate 0.1250 kg/ha); 9.0 in assay [5] (rate 0.2500 kg/ha).
